Values quoted from earlier work as cited in patent publication US20040023897A1, “Methods for preventing or treating disease mediated by toxin-secreting bacteria” (priority 2001, published 2004).

Tests used:
V-ATPases [1] = system: V-ATPases
V-ATPases [2] = system: V-ATPases; remark: listed apart in the source

For `C/C=C/[C@H]1O[C@@](O)([C@@H](C)[C@H](O)[C@H](C)[C@H]2OC(=O)/C(OC)=C/C(C)=C/[C@@H](C)[C@@H](O)[C@@H](CC)[C@@H](O)[C@H](C)C/C(C)=C/C=C/[C@@H]2OC)C[C@@H](O[C@H]2C[C@@H](O)[C@H](OC(N)=O)[C@@H](C)O2)[C@@H]1C` [concanamycin A], the “concentration at which reversible inhibition of proton translocation occurs” value (V-ATPases [1]) is listed as “sub-micromolar concentrations”.
For `C(=NC1CCCCC1)=NC1CCCCC1` [DCCD, N,N′-dicyclohexylcarbodiimide], the “inhibition of proton pumping” value (V-ATPases [1]; micromolar concentrations of DCCD) is listed as “complete and irreversible inhibition”.
In the case of `CCN1C(=O)C=CC1=O` [N-ethylmaleimide], the “concentration at which inhibition of ATP hydrolysis occurs” value (V-ATPases [2]) is listed as “low micromolar concentrations”.
For `CO/C1=C\C(C)=C\[C@@H](C)[C@@H](O)[C@@H](C)C/C(C)=C/C=C/[C@H](OC)[C@@H]([C@@H](C)[C@@H](O)[C@H](C)[C@@]2(O)C[C@@H](O)[C@H](C)[C@@H](C(C)C)O2)OC1=O` [Bafilomycin A1], the “concentration at which reversible inhibition of proton translocation occurs” value (V-ATPases [1]) is listed as “sub-micromolar concentrations”.
